Reference: the METLIN SMRT retention time set (Domingo-Almenara et al. 2019)

Experiment: gradient 5% acetonitrile 3 min, to 50% in 2 min, to 85% in 15 min, held 3 min, 100 µL/min
Settings: column: Zorbax Extend-C18 2.1 x 50 mm; eluents: water / acetonitrile, 0.1% formic acid
In short: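 Mixtures of ~100 pure standards were chromatographed on a Zorbax Extend-C18 column (2.1 × 50 mm, 1.8 μm) at 100 μL/min using water and acetonitrile, each with 0.1% formic acid. Detection used a quadrupole time-of-flight mass spectrometer in positive and negative ionization mode, and data collection spanned 3 months. Retention time was obtained from adduct peaks picked computationally and each checked manually.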

RP-LC retention time [s] | SMILES
843 | CCCN(CC1CCOC1)C(=O)Nc1ccc(Cl)cc1 (stereo not given)
716 | COc1ccc(-c2nnc(-c3ccccc3)o2)cc1S(N)(=O)=O
888 | COc1cccc(OC)c1C(=O)Nc1nnc(SCc2nnc(-c3ccccc3C)o2)s1
660 | CCC(C(=O)NCc1ccc2c(c1)ncn2CC)c1ccccc1 (stereo not given)
816 | CC(C)c1ccc(NC(=O)Cn2cnc3c2c(=O)n(C)c(=O)n3C)cc1
734 | Cc1ccn2c(Nc3ccc4c(c3)OCCO4)c(-c3ccc(N(C)C)cc3)nc2c1
560 | CCOC(=O)c1cnc2ccc(OCC)cc2c1NCCN(C)C
1340 | Cc1c(Cl)cccc1NS(=O)(=O)c1cc(-c2nc(C(C)(C)C)cs2)cs1
1170 | CCOC(=O)Cc1sc(Nc2nc3ccccc3s2)nc1-c1ccccc1
1210 | CCOc1ccc(-c2cc3c(=O)n(Cc4nc(-c5ccc(SC)cc5)no4)ncn3n2)cc1
604 | Cc1cc(C)c2[nH]c3c(c(=O)c2c1)CN(CC(=O)Nc1ccc2c(c1)OCCO2)CC3
645 | COc1cccc2c1OC1(C)CC2NC(=O)N1c1cccc(C(=O)O)c1 (stereo not given)
577 | Nc1nccn(Cc2ccc(F)cc2F)c1=O
624 | Cc1cccnc1NC(=O)C1CCCN(c2ccc3cc(S(=O)(=O)N4CCCC4)ccc3n2)C1 (stereo not given)
750 | COc1ccc(CCNC(=O)CSC2=Nc3ccc(C)cc3OC2)cc1OC
679 | Cc1nn2c(CNC(=O)Cc3cccc(C(F)(F)F)c3)c(C)nc2s1
782 | O=C(Cn1cccn1)N1CCN(c2cccc(Cl)c2Cl)CC1
844 | COc1ccc(C(=O)N2CCN(C(=O)c3nnn4c3COC(c3ccc(F)cc3)C4)CC2)cc1F (stereo not given)
572 | COc1cccc(CC(=O)N2CCc3nc[nH]c3C2)c1
688 | CCc1noc(NC(C)=O)c1-c1ccc(OC)c(S(=O)(=O)Nc2ccc(OC)c(OC)c2)c1
965 | Cc1ccc(NC(=O)Cn2cnc3c(-c4ccccc4)csc3c2=O)c(Cl)c1
654 | Cc1cc(NC(=O)Cn2cnc(-c3cccs3)cc2=O)sn1

RP-LC retention time [s] | SMILES
1110 | COc1ccc(N2CCN(c3cc(SCC(=O)NCCCc4ccccc4)ncn3)CC2)cc1
629 | CCOC(=O)C1CCN(C(=O)C2CCN(c3cncnc3N3CCCC3)CC2)CC1
751 | CCCS(=O)(=O)N1CCC(c2noc(-c3ccncc3)n2)C1 (stereo not given)
943 | COc1cccc(-c2nc(C3CC(=O)N(c4ccccc4)C3)no2)c1 (stereo not given)
1050 | CCc1nc(-c2csc(S(=O)(=O)N3CCC(C(=O)N4CCc5ccccc54)CC3)c2)no1
829 | CCOC(=O)C(=O)Nc1nnc(SCc2nnc(-c3ccccc3C)o2)s1
926 | Cc1nn(-c2ccccc2)c(C)c1S(=O)(=O)N1CCC(C(=O)Nc2ccccc2)CC1
580 | COc1cccc(CNC(=O)Nc2ccc3nc(N4CCN(C)CC4)cc(C)c3c2)c1
709 | CCC1CCCCN1c1cc(SCC(=O)Nc2ccc(N(C)C)cc2)ncn1 (stereo not given)
792 | CCn1c(=O)c2ccn(CC(=O)Nc3cc(C)cc(C)c3)c2n(CC)c1=O
807 | CCC1Oc2ccc(S(=O)(=O)N3CCC(C(=O)NCc4cccs4)CC3)cc2NC1=O (stereo not given)
1140 | CCOC(=O)c1nc(N2CCN(c3cc(Cl)ccc3C)CC2)c2ccccc2n1
942 | CCc1nc2cc(N3CCC(C(=O)Nc4ccccc4OC)CC3)cnc2nc1CC
684 | COc1ccc(Cl)cc1S(=O)(=O)N1CCC(n2cnnc2C)CC1
553 | O=C(NCCN1CCCC1)c1cccc(N2CCNC(c3ccccc3)C2)n1 (stereo not given)
744 | Cc1ccc(Cn2c(CCCC(=O)N3CCN(c4ncccn4)CC3)nc3cccnc32)cc1
594 | COCCC(=O)N1CCC2(CCC2NC(=O)COC)CC1 (stereo not given)
748 | Cn1cnc(S(=O)(=O)N2CCC(c3noc(-c4ccccc4)n3)C2)c1 (stereo not given)
643 | O=C(NCc1ccc2c(c1)OCO2)c1ccc(-c2cc(N3CCOCC3)ncn2)cc1
567 | O=C(Cn1nc(Cc2ccncc2)c2ccccc2c1=O)NCCCN1CCc2ccccc2C1
896 | CCOc1ccc(NC(=O)Cn2c(C)cc(-c3nnc(C4CCC4)o3)c2C)cc1
548 | CNC(=O)c1ccc(-c2nc3cc(NS(=O)(=O)c4cnc[nH]4)ccc3n2C)cc1

RP-LC retention time [s] | SMILES
770 | CC1CCN(C(=O)Cc2nnc3cc(-c4nc(C(C)C)no4)ccn23)CC1
664 | Cn1c(CN2CCN(C(=O)c3ccco3)CC2)nc2cc(NC(=O)C3CCCCC3)ccc21
596 | CCNC(=O)N1CCCC(c2cccc(C(=O)NCCCN3CCCCC3)c2)C1 (stereo not given)
913 | O=C(C1CCN(S(=O)(=O)c2cccc3nonc23)CC1)N1CCc2ccccc2C1
876 | Cc1cccc(NC(=O)Cn2c(=O)n(-c3ccc(F)cc3)c3ncccc32)c1
869 | COC(=O)c1nnc2c(-c3ccccc3OC)c(C)nn2c1C
873 | Cc1cc2c(c(=O)n(-c3ccccc3)c(=O)n2CC(=O)Nc2ccc(Cl)cc2F)n1C
679 | Cc1ccc(S(=O)(=O)c2cnc(N3CCN(Cc4ccc5c(c4)OCO5)CC3)nc2N)cc1
924 | O=C(Cn1ccc2ccc(N3CCOCC3)nc21)NCC1CCCCC1
692 | CNC(=O)c1cccc(Nc2c(-c3ccc(SC)cc3)nc3cnccn23)c1
574 | CCCN1CCN(C(=O)C2CCN(S(=O)(=O)c3cc(C(=O)N4CCCC4)n(C)c3)CC2)CC1
711 | O=C(CCc1csc(NC(=O)NC2CCCCC2)n1)NCc1cccs1
767 | COCCNC(=O)c1csc(N2CCN(c3ccc(OC)cc3)CC2)n1
608 | COC(=O)CC(NC(=O)N1CCCn2nc(-c3ccncc3)cc2C1)c1ccccc1 (stereo not given)
938 | COC(=O)COC(=O)c1cn(-c2cccc(F)c2)c(=O)c2ccccc12
878 | CC(C(=O)N1CC2CN(S(=O)(=O)c3cccc(F)c3)CC(C1)O2)c1ccccc1 (stereo not given)
627 | CC(C)Cn1c(CC2CCN(C(=O)c3n[nH]c4ccccc34)C2)nc2cccnc21 (stereo not given)
993 | Cc1cc(C)cc(Nc2cc(C)n3c(=O)n(Cc4cc(=O)n5ccccc5n4)nc3n2)c1
691 | CN(Cc1cccnc1Oc1ccccc1)C(=O)c1cnccn1
1020 | CCOc1ccc(-n2c(=O)c3sccc3n(Cc3nc(-c4ccccc4Cl)no3)c2=O)cc1
1060 | COc1ccc(-c2nnc(-c3cccnc3N3CCN(c4ccc(C)cc4)CC3)o2)cc1
